± gives the expanded uncertainty stated by the source.
What was measured:
[1] = 298.15 K; 101.33 kPa; Liquid; Vibrating tube method
[2] = refractive index (Na D-line) (dimensionless); details: 298.15 K; 101.33 kPa; Liquid; Standard Abbe refractometry

| SMILES | mass density [1] | refractive index [2] |
| --- | --- | --- |
| c1ccsc1 [thiophene] | 1058.61 ± 0.12 kg/m3 | 1.52523 ± 0.00035 |
| Cc1ccccc1 [toluene] | 862.18 ± 0.13 kg/m3 | 1.49367 ± 0.00035 |
| c1ccncc1 [pyridine] | 978.24 ± 0.1 kg/m3 | 1.50636 ± 0.00035 |
| CCCCCC [hexane] | 655.09 ± 0.26 kg/m3 | 1.37236 ± 0.00039 |
| CCCCCC[n+]1ccc(C)cc1C.O=S(=O)([N-]S(=O)(=O)C(F)(F)F)C(F)(F)F | 1339.39 ± 1.6 kg/m3 | 1.45336 ± 0.00052 |
